Patent publication US6949574B2 (Bristol-Myers Squibb Company, priority 2002, dated 2005)
Read-outs that look alike come from different tables or passages of the source. One block for each compound: values may come before it.

Assays:
[1] = tested on: carrageenan-induced edema; experiment: Paw edema model (inflammation-induced edema), plethysmometry; format: in vivo, rat
From the text: PAW EDEMA MODEL (Inflammation-induced Edema) The effects of Example 5 on carrageenan-induced edema were examined in a quantitative manner (plethysmometry).

human FAAH = molecular target: T1, human FAAH (Homo sapiens, UniProt O00519); experiment: FAAH activity in membrane homogenates of H4-FAAH cells, [3H]-anandamide hydrolysis; format: biochemical; conditions: H4-FAAH cell membranes, 10 μM anandamide, room temperature, one hour; read-out: IC50
T1 construct: expressed in transfected cells; host or cells: H4 cells (H4-FAAH, Geneticin-selected); crude membrane homogenates
T1 sequence (O00519 1-579): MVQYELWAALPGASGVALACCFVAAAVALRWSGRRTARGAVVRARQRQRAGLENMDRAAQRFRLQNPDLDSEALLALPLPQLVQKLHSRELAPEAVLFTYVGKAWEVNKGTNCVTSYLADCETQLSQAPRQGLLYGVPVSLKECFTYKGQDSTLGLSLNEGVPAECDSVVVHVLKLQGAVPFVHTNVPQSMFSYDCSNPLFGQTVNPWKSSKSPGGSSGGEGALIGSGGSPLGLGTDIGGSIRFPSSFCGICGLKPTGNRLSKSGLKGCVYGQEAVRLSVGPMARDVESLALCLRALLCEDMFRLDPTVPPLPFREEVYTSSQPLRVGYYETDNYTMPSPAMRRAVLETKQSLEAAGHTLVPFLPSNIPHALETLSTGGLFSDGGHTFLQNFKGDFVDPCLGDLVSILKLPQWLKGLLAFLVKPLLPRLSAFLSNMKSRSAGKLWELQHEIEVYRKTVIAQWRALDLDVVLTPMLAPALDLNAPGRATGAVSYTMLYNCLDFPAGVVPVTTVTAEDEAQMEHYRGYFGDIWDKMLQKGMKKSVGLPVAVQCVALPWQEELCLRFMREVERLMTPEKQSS
How it was run: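 Membranes (240 ng protein) from H4 cells expressing transfected human FAAH, incubated 1 h at room temperature in 125 mM Tris-Cl, pH 9.0, with 1.67 nM [3H]-anandamide plus 10 μM anandamide. Aqueous [3H]-ethanolamine counted after methanol/dichloroethane extraction; background set with 10 μM ATFMK. IC50 from four-parameter logistic fit.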

[2] = tested on: thermal hyperalgesia induced by paw carrageenan; experiment: Carrageenan-induced thermal hyperalgesia (chronic inflammatory pain); format: in vivo, rat
From the text: FIG. 1 illustrates results from a rat carrageen-induced thermal hypergesia model used for measuring chronic inflammatory pain.
The following in vivo pain models below utilized Example 5. […] Paw carrageenan injection (⋄, 0:45 hr, Carr) produced strong thermal hyperalgesia as evidenced by the short escape latencies seen in vehicle treated rats (⋄, 2:15 hr, Carr) as compared to the long baseline latencies (0:00 hr). […] Data are mean+/−s.e.m. (n=8 per group). *p<0.05, **p<0.01 Tukey's HSD, compared to vehicle.

[3] = tested on: acute thermal pain behavior; format: in vivo, rat
From the text: FIG. 2 illustrates results from a rat Hargreaves test used for measuring acute thermal pain.
Data are mean+/−s.e.m. (n=8 per group). **p<0.01 Dunnett's Test, compared to vehicle control.

SMILES: CCCCOc1ccc(NC(=O)O/N=C/c2ccc(F)cc2)cc1 [Example 5, 4-Fluorobenzaldehyde, O-[[(4-butoxyphenyl)amino]carbonyl]oxime]
inhibition of swelling (combined total paw volume) ([1]; 20 mg/kg ip): no efficacy
inhibition of swelling (combined total paw volume) ([1]; 40 mg/kg ip at -30 min and +2 hr relative to carrageenan, measured 3 hours post-injection): 26%
IC50 (human FAAH): < 10 nM
side effects ([2]; 40 mg/kg, i.p.): No side effects were observed
thermal escape latencies of drug treated animals ([2]; 40 mg/kg, i.p., at 2:15 hr): comparable to baseline
development of thermal hyperalgesia ([2]; 40 mg/kg, i.p., pretreatment before paw carrageenan): suppressed the development of thermal hyperalgesia
thermal escape responses after second injection ([2]; second injection 40 mg/kg i.p. at 3:00 hr, 3:00-4:00 hr): maintained thermal escape responses at basal levels for another hour
side effects ([3]; 10 mg/kg i.v.): No significant side effects were observed
side effects ([3]; 30 mg/kg i.v.): strong sedation, reduced activity and splayed hindlimbs
acute thermal pain behavior ([3]; 10 & 30 mg/kg, i.v. hand infusion, 15 min post injection, did not persist beyond this time): significant reversal of acute thermal pain behavior

SMILES: CCCCOc1ccc(C(CC)NC(=O)Oc2ccc3ncccc3c2)cc1 (stereo not drawn) [Example 125, [1-(4-Butoxy-phenyl)-propyl]-carbamic acid quinolin-6-yl ester]
melting point: 115 to 118 °C
IC50 (human FAAH): 10 to 100 nM

melting point: 141.5 to 142 °C
IC50 (human FAAH): > 500 nM
SMILES: O=C(Nc1ccccc1Oc1ccccc1)O/N=C/c1ccc(F)cc1 [Example 89, 4-Fluorobenzaldehyde, O-[[(2-phenoxyphenyl)amino]carbonyl]oxime]

melting point: 141.5 to 142 °C
IC50 (human FAAH): 10 to 100 nM
SMILES: O=C(Nc1ccccc1Oc1ccccc1)O/N=C/c1ccccc1 [Example 90, Benzaldehyde, O-[[(2-phenoxyphenyl)amino]carbonyl]oxime]

SMILES: C[C@@H]1C[C@H]2[C@@H]3CCC4=CC(=O)C=C[C@]4(C)[C@@]3(F)[C@@H](O)C[C@]2(C)[C@@]1(O)C(=O)CO [dexamethasone, reference compound]
inhibition of swelling (combined total paw volume) ([1]; 1 mg/kg ip): 70%

SMILES: CCCOc1ccc(NC(=O)O/N=C/c2cccnc2)cc1 [Example 16, 3-Pyridinecarboxaldehyde, O-[[(4-propoxyphenyl)amino]carbonyl]oxime]
IC50 (human FAAH): 10 to 100 nM

SMILES: O=C(Nc1ccc(OCCc2ccccc2)cc1)O/N=C/c1ccc(F)cc1 [Example 82, 4-Fluorobenzaldehyde, O-[[[4-(2-phenylethoxy)phenyl]amino]carbonyl]oxime]
IC50 (human FAAH): < 10 nM

SMILES: CCCCCCOc1ccc(NC(=O)O/N=C/c2cccnc2)cc1 [Example 25, 3-Pyridinecarboxaldehyde, O-[[(4-hexyloxyphenyl)amino]carbonyl]oxime]
IC50 (human FAAH): < 10 nM

IC50 (human FAAH): 10 to 100 nM
SMILES: O=C(Nc1ccc2oc3ccccc3c2c1)O/N=C/c1ccccc1 [Example 154, Benzaldehyde, O-[[(2-dibenzofuranyl)amino]carbonyl]oxime]

SMILES: CCCCOc1ccc(C(CC)NC(=O)Oc2ccc(C(C)C)cc2)cc1 (stereo not drawn) [Example 129, [1-(4-Butoxy-phenyl)-propyl]-carbamic acid 4-isopropyl-phenyl ester]
IC50 (human FAAH): 101 to 500 nM

SMILES: CCCCCCCCCCCCOc1ccc(NC(=O)Oc2ccccc2F)cc1 [Example 106, 4-Dodecyloxyphenylcarbamic acid, 2-fluorophenyl ester]
IC50 (human FAAH): 10 to 100 nM

IC50 (human FAAH): < 10 nM
SMILES: CCCCCCCCCOc1ccc(NC(=O)O/N=C/c2c(F)cccc2F)cc1 [Example 50, 2,6-Difluorobenzaldehyde, O-[[(4-nonyloxyphenyl)amino]carbonyl]oxime]
